These results are taken from patent publication US20200239530A1, “COMPOUNDS AND METHODS OF MODULATING PROTEIN DEGRADATION” (Vividion Therapeutics, Inc., priority 2017, published 2020).

The structures appear in SMILES notation.

The target of test [1] is T1, FLYWCH2 FLYWCH family member 2 (Homo sapiens, UniProt Q96CP2).
T1 construct: 200 μL of lysate containing 5 mg/ml proteome was treated with 2 μL of 100× compound stock; endogenous in cells
T1 sequence (Q96CP2 1-140): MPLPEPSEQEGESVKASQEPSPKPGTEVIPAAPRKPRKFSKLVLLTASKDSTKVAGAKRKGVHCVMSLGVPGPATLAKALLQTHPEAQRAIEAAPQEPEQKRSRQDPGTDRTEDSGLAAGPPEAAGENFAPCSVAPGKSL
Description: Cysteine liganding, probe competition. It counts as binding. In a few lines:
(§1)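 Read-out is loss of desthiobiotin iodoacetamide labelling at cysteines, measured on streptavidin-enriched tryptic peptides. Compound preincubation ran 1 hr at 25° C in PBS lysate holding 5 mg/ml proteome before the probe was added.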

Test [2] addresses T2, POGZ Pogo transposable element with ZNF domain (Homo sapiens, UniProt Q7Z3K3).
T2 construct: Cells were resuspended in cold PBS on ice and sonicated with a probe sonicator to achieve lysis; endogenous in cells
T2 sequence (Q7Z3K3 1-1410): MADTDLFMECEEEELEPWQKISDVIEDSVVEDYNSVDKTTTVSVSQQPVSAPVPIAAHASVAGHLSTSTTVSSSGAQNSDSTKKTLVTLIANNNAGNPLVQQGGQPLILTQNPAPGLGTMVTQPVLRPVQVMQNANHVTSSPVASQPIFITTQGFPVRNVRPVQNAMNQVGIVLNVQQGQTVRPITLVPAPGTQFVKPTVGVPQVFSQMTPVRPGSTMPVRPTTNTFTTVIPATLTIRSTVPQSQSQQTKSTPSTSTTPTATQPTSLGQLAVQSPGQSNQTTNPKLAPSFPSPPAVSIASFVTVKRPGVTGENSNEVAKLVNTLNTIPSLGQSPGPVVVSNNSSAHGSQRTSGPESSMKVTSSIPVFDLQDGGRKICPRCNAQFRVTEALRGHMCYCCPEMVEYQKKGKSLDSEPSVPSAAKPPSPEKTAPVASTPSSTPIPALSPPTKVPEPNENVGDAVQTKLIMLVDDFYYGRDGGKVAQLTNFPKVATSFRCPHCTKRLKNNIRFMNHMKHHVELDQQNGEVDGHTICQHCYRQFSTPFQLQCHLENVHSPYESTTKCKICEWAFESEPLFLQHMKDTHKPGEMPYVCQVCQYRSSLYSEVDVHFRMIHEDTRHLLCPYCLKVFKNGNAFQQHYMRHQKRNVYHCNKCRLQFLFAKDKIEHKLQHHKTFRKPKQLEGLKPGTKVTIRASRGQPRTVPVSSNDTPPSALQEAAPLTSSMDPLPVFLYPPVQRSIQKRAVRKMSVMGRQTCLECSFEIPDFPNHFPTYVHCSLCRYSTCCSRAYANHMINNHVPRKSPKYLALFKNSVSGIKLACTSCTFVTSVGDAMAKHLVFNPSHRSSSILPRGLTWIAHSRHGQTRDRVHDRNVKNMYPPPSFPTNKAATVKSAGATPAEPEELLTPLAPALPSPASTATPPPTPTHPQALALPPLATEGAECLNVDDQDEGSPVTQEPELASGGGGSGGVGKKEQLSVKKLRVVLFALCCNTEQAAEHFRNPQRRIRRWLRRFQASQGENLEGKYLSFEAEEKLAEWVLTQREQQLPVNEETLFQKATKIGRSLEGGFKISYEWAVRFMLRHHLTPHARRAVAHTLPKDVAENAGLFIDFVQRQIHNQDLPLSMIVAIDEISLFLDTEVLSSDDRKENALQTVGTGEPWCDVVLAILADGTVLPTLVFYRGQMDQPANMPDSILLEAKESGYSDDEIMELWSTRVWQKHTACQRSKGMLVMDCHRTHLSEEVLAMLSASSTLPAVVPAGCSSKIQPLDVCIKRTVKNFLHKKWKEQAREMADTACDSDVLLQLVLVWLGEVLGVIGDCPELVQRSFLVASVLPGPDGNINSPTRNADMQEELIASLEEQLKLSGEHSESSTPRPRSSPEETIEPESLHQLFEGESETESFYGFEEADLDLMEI
The test can be described thus: Cysteine liganding, probe competition. The test is classed as binding. In a few lines: as §1

On to `COc1ccc2c(c1)CCCN2C(=O)CCl` [KB02], for which the Liganded result is “YES” in test [1] (FLYWCH2 Res# 64, uniprot Q96CP2) and “YES” in test [2] (POGZ Res# 547, uniprot Q7Z3K3).
Consider `O=C(CCl)Nc1cc(C(F)(F)F)cc(C(F)(F)F)c1` [KBO3], for which, in test [1] (uniprot Q96CP2), the “100 Max” value amounted to 12.97, the 100 ave stood at 2.25, the “500 Max” value is 41.66 and the 500 ave turned out to be 41.635. In addition, in test [2] (uniprot Q7Z3K3), the “100 Max” value is reported as 2.21, the 100 ave is −8.9575, the “500 Max” value was determined as 15.64 and the 500 ave is on record as 13.995.
